Source: patent publication US6008372A, “Substituted dinaphthylmethyl and diheteroarylmethylacetyl histidine inhibitors of protein farnesyltransferase” (Warner-Lambert Company, priority 1998, dated 1999)
Like-named read-outs stand apart in the source and are kept apart here.

Target: T1, rat brain farnesyl protein transferase (Rattus norvegicus, UniProt Q02293+Q04631)
T1 construct: 40-fold purified rat brain farnesyl protein transferase; from tissue; host or cells: rat brain
Test: Protein:farnesyltransferase (PFT/FPT) inhibitory activity assay
Format: biochemical

[1] = Hepes (without 5 mM phosphate), read-out: Farnesyl Protein Transferase Inhibition, Hepes, IC50
[2] = Hepes/5 mM PO4^-3, pH 7.4, read-out: Farnesyl Protein Transferase Inhibition, Hepes/5 mM PO4^-3, IC50

Row | IC50 [1] [µM] | IC50 [2] [µM] | Compound
1 | 0.64 | 0.61 | CC(C#N)OC(=O)[C@H](Cc1c[nH]cn1)NC(=O)C(Cc1cccc2ccccc12)Cc1cccc2ccccc12 (mixture of isomers) [Example 61, (S)-3-(1H-Imidazol-4-yl)-2-(3-naphthalen-1-yl-2-naphthalen-1-ylmethyl-propionylamino)-propionic acid, (±)-1-cyano-ethyl ester]
2 | 5.8 | 4.3 | O=C(N[C@@H](Cc1c[nH]cn1)C(=O)OCCN1CCOCC1)C(Cc1cccc2ccccc12)Cc1cccc2ccccc12 [Example 22, (S)-3-(1H-Imidazol-4-yl)-2-(3-naphthalen-1-yl-2-naphthalen-1-ylmethyl-propionylamino)-propionic acid, 2-morpholin-4-yl-ethyl ester]
3 | 5.3 | 3.8 | NC(=O)[C@H](Cc1c[nH]cn1)NC(=O)C(Cc1cccc2ccccc12)Cc1cccc2ccccc12 [Example 24, (S)-N-[1-Carbamoyl-2-(1H-imidazol-4-yl)-ethyl]-3-naphthalen-1-yl-2-naphthalen-1-ylmethyl-propionamide]
4 | 1.9 | 1.5 | O=C(N[C@@H](Cc1c[nH]cn1)C(=O)NCCn1ccnc1)C(Cc1cccc2ccccc12)Cc1cccc2ccccc12 [Example 25, (S)-N-[2-(1H-Imidazol-4-yl)-1-(2-imidazol-1-yl-ethylcarbamoyl)-ethyl]-3-naphthalen-1-yl-2-naphthalen-1-ylmethyl-propionamide]
5 | 12 | 8.7 | CCSCCNC(=O)[C@H](Cc1c[nH]cn1)NC(=O)C(Cc1cccc2ccccc12)Cc1cccc2ccccc12 [Example 26, (S)-N-[1-(2-Ethylsulfanyl-ethylcarbamoyl)-2-(1H-imidazol-4-yl)-ethyl]-3-naphthalen-1-yl-2-naphthalen-1-ylmethyl-propionamide]
6 | 8.1 | 4.2 | O=C(N[C@@H](Cc1c[nH]cn1)C(=O)NCCCn1ccnc1)C(Cc1cccc2ccccc12)Cc1cccc2ccccc12 [Example 28]
7 | 3.2 | 3.7 | O=C(N[C@@H](Cc1c[nH]cn1)C(=O)NCCO)C(Cc1cccc2ccccc12)Cc1cccc2ccccc12 [Example 29, (S)-N-[1-(2-Hydroxy-ethylcarbamoyl)-2-(1H-imidazol-4-yl)-ethyl]-3-naphthalen-1-yl-2-naphthalen-1-ylmethyl-propionamide]
8 | 4.6 | 3.5 | CC(C)NC(=O)[C@H](Cc1c[nH]cn1)NC(=O)C(Cc1cccc2ccccc12)Cc1cccc2ccccc12 [Example 30, (S)-N-[2-(1H-Imidazol-4-yl)-1-isopropylcarbamoyl-ethyl]-3-naphthalen-1-yl-2-naphthalen-1-ylmethyl-propionamide]
9 | 26 | 15 | O=C(N[C@@H](Cc1c[nH]cn1)C(=O)NCCN1CCOCC1)C(Cc1cccc2ccccc12)Cc1cccc2ccccc12 [Example 31, (S)-N-[2-(1H-Imidazol-4-yl)-1-(2-morpholin-4-yl-ethylcarbamoyl)-ethyl]-3-naphthalen-1-yl-2-naphthalen-1-ylmethyl-propionamide]
10 | 19 | 14 | CCN(CC)CCNC(=O)[C@H](Cc1c[nH]cn1)NC(=O)C(Cc1cccc2ccccc12)Cc1cccc2ccccc12 [Example 32]
11 | 2.9 | 2 | CCNC(=O)[C@H](Cc1c[nH]cn1)NC(=O)C(Cc1cccc2ccccc12)Cc1cccc2ccccc12 [Example 34, (S)-N-[1-Ethylcarbamoyl-2-(1H-imidazol-4-yl)-ethyl]-3-naphthalen-1-yl-2-naphthalen-1-ylmethyl-propionamide]
12 | 15 | 14 | NS(=O)(=O)c1ccc(CCNC(=O)[C@H](Cc2c[nH]cn2)NC(=O)C(Cc2cccc3ccccc23)Cc2cccc3ccccc23)cc1 [Example 35]
13 | 0.78 | 0.85 | O=C(N[C@@H](Cc1c[nH]cn1)C(=O)NCCOCc1ccccc1)C(Cc1cccc2c1CCCC2)Cc1cccc2c1CCCC2 [Example 38, (S)-N-[1-(2-Benzyloxy-ethylcarbamoyl)-2-(1H-imidazol-4-yl)-ethyl]-3-(5,6,7,8-tetrahydro-naphthalen-1-yl)-2-(5,6,7,8-tetrahydro-naphthalen-1-ylmethyl)-propionamide]
14 | 1.2 | 0.97 | COC(=O)[C@H](Cc1c[nH]cn1)NC(=O)C(Cc1csc2ccccc12)Cc1csc2ccccc12 [Example 39, (S)-2-(3-Benzo[b]thiophen-3-yl-2-benzo[b]thiophen-3-ylmethyl-propionylamino)-3-(1H-imidazol-4-yl)-propionic acid, methyl ester]
15 | 2.6 | 3.2 | CC(=O)NCCSC(=O)[C@H](Cc1c[nH]cn1)NC(=O)C(Cc1cccc2ccccc12)Cc1cccc2ccccc12 [Example 40, (S)-3-(1H-Imidazol-4-yl)-2-(3-naphthalen-1-yl-2-naphthalen-1-ylmethyl-propionylamino)-thiopropionic acid, S-(2-acetylamino-ethyl)ester]

More lines, now with the values behind:

Row | Compound | IC50 [1] [µM] | IC50 [2] [µM]
16 | CCC(C)OC(=O)[C@H](Cc1c[nH]cn1)NC(=O)C(Cc1cccc2ccccc12)Cc1cccc2ccccc12 (mixture of isomers) [Example 14, (S)-3-(1H-Imidazol-4-yl)-2-(3-naphthalen-1-yl-2-naphthalen-1-ylmethyl-propionylamino)-propionic acid, (±)-sec-butyl ester] | 0.82 | 0.54
17 | COC(=O)[C@@H](Cc1c[nH]cn1)NC(=O)C(Cc1cccc2ccccc12)Cc1cccc2ccccc12 [Example 2, (R)-3-(1H-Imidazol-4-yl)-2-(3-naphthalen-1-yl-2-naphthalen-1-ylmethyl-propionylamino)-propionic acid, methyl ester] | 12 | 10
18 | O=C(N[C@@H](Cc1c[nH]cn1)C(=O)O)C(Cc1cccc2ccccc12)Cc1cccc2ccccc12 [Example 3, (S)-3-(1H-Imidazol-4-yl)-2-(3-naphthalen-1-yl-2-naphthalen-1-ylmethyl-propionylamino)-propionic acid] | 1 | 2.3
19 | O=C(N[C@H](Cc1c[nH]cn1)C(=O)O)C(Cc1cccc2ccccc12)Cc1cccc2ccccc12 [Example 4, (R)-3-(1H-Imidazol-4-yl)-2-(3-naphthalen-1-yl-2-naphthalen-1-ylmethyl-propionylamino)-propionic acid] | 6.1 | 19.5
20 | CCCCOC(=O)[C@H](Cc1c[nH]cn1)NC(=O)C(Cc1cccc2ccccc12)Cc1cccc2ccccc12 [Example 9, (S)-3-(1H-Imidazol-4-yl)-2-(3-naphthalen-1-yl-2-naphthalen-1-ylmethyl-propionylamino)-propionic acid, butyl ester] | 1.3 | 1.1
21 | O=C(N[C@@H](Cc1c[nH]cn1)C(=O)OCc1ccccc1)C(Cc1cccc2ccccc12)Cc1cccc2ccccc12 [Example 10, (S)-3-(1H-Imidazol-4-yl)-2-(3-naphthalen-1-yl-2-naphthalen-1-ylmethyl-propionylamino)-propionic acid, benzyl ester] | 4.2 | 2.9
22 | O=C(N[C@@H](Cc1c[nH]cn1)C(=O)OC1CCCCC1)C(Cc1cccc2ccccc12)Cc1cccc2ccccc12 [Example 11, (S)-3-(1H-Imidazol-4-yl)-2-(3-naphthalen-1-yl-2-naphthalen-1-ylmethyl-propionylamino)-propionic acid, cyclohexyl ester] | 20 | 14
23 | O=C(N[C@@H](Cc1c[nH]cn1)C(=O)OCC1CC1)C(Cc1cccc2ccccc12)Cc1cccc2ccccc12 [Example 12, (S)-3-(1H-Imidazol-4-yl)-2-(3-naphthalen-1-yl-2-naphthalen-1-ylmethyl-propionylamino)-propionic acid, cyclopropylmethyl ester] | 0.4 | 0.25
24 | CCCCc1nc(COC(=O)[C@H](Cc2c[nH]cn2)NC(=O)C(Cc2cccc3ccccc23)Cc2cccc3ccccc23)c[nH]1 [Example 13, (S)-3-(1H-Imidazol-4-yl)-2-(3-naphthalen-1-yl-2-naphthalen-1-ylmethyl-propionylamino)-propionic acid, 2-butyl-1H-imidazol-4-ylmethyl ester] | 2.1 | 1.7
25 | C#CCOC(=O)[C@H](Cc1c[nH]cn1)NC(=O)C(Cc1cccc2ccccc12)Cc1cccc2ccccc12 [Example 16, (S)-3-(1H-Imidazol-4-yl)-2-(3-naphthalen-1-yl-2-naphthalen-1-ylmethyl-propionylamino)-propionic acid, prop-2-ynyl ester] | 0.5 | 0.59
26 | O=C(N[C@@H](Cc1c[nH]cn1)C(=O)OCCOCc1ccccc1)C(Cc1cccc2ccccc12)Cc1cccc2ccccc12 [Example 18, (S)-3-(1H-Imidazol-4-yl)-2-(3-naphthalen-1-yl-2-naphthalen-1-ylmethyl-propionylamino)-propionic acid, 2-benzyloxyethyl ester] | 0.57 | 0.54
27 | O=C(N[C@@H](Cc1c[nH]cn1)C(=O)OCCc1cccs1)C(Cc1cccc2ccccc12)Cc1cccc2ccccc12 [Example 19, (S)-3-(1H-Imidazol-4-yl)-2-(3-naphthalen-1-yl-2-naphthalen-1-ylmethyl-propionylamino)-propionic acid, 2-thiophen-2-yl-ethyl ester] | 1.1 | 1.1
28 | O=C(N[C@@H](Cc1c[nH]cn1)C(=O)OCc1ccsc1)C(Cc1cccc2ccccc12)Cc1cccc2ccccc12 [Example 20, (S)-3-(1H-Imidazol-4-yl)-2-(3-naphthalen-1-yl-2-naphthalen-1-ylmethyl-propionylamino)-propionic acid, thiophen-3-ylmethyl ester] | 3.5 | 2.4
29 | CCN(CC)CCOC(=O)[C@H](Cc1c[nH]cn1)NC(=O)C(Cc1cccc2ccccc12)Cc1cccc2ccccc12 [Example 21, (S)-3-(1H-Imidazol-4-yl)-2-(3-naphthalen-1-yl-2-naphthalen-1-ylmethyl-propionylamino)-propionic acid, 2-diethylamino-ethyl ester] | 21 | 9
